{
  "source": "PubChem BioAssay (NCI)",
  "assay_in_all_cases": "NCI tumour cell line growth inhibition, 48 h",
  "key": {"A549 NSCLC": {"system": "A549 NSCLC"}, "SNB-19 CNS": {"system": "SNB-19 CNS"}, "CAKI-1 renal": {"system": "CAKI-1 renal"}, "SNB-75 CNS": {"system": "SNB-75 CNS"}, "SW-620 colon": {"system": "SW-620 colon"}, "MCF7 breast": {"system": "MCF7 breast"}, "NCI-H226 lung": {"system": "NCI-H226 lung"}, "HL-60(TB) leukemia": {"system": "HL-60(TB) leukemia"}, "SK-MEL-2 melanoma": {"system": "SK-MEL-2 melanoma"}, "NCI-H23 lung": {"system": "NCI-H23 lung"}, "786-0 renal": {"system": "786-0 renal"}, "SN12C renal": {"system": "SN12C renal"}, "HT29 colon": {"system": "HT29 colon"}, "UACC-257 melanoma": {"system": "UACC-257 melanoma"}, "TK-10 renal": {"system": "TK-10 renal"}, "SK-OV-3 ovarian": {"system": "SK-OV-3 ovarian"}, "HS 578T breast": {"system": "HS 578T breast"}, "A498 renal": {"system": "A498 renal"}, "SF-539 CNS": {"system": "SF-539 CNS"}, "SF-295 CNS": {"system": "SF-295 CNS"}, "NCI/ADR-RES ovarian": {"system": "NCI/ADR-RES ovarian"}, "HCT-15 colon": {"system": "HCT-15 colon"}, "PC-3 prostate": {"system": "PC-3 prostate"}, "M14 melanoma": {"system": "M14 melanoma"}, "K-562 leukemia": {"system": "K-562 leukemia"}, "RXF 393 renal": {"system": "RXF 393 renal"}, "COLO 205 colon": {"system": "COLO 205 colon"}},
  "note": "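1) Cells in 96-well plates. 2) Compound, 48 h, 5 concentrations. 3) Linear interpolation between surrounding doses. 4) Unreached endpoint = highest concentration. The concentration for 50% growth inhibition is given as GI50. TGI: concentration producing complete growth inhibition.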",
  "data": [
    {"smiles": "COc1ccc(C(=O)c2cc3c(N)c(C(=O)Nc4ccccc4)sc3nc2C)cc1", "values": [
      {"measurement": "GI50", "setting": "A549 NSCLC", "result": 638, "unit": "nM"},
      {"measurement": "TGI", "setting": "A549 NSCLC", "result": "> 100000", "unit": "nM"},
      {"measurement": "GI50", "setting": "SNB-19 CNS", "result": 2020, "unit": "nM"},
      {"measurement": "TGI", "setting": "SNB-19 CNS", "result": "> 100000", "unit": "nM"},
      {"measurement": "GI50", "setting": "CAKI-1 renal", "result": 656, "unit": "nM"},
      {"measurement": "TGI", "setting": "CAKI-1 renal", "result": "> 100000", "unit": "nM"},
      {"measurement": "GI50", "setting": "SNB-75 CNS", "result": 242, "unit": "nM"},
      {"measurement": "TGI", "setting": "SNB-75 CNS", "result": 5920, "unit": "nM"},
      {"measurement": "GI50", "setting": "SW-620 colon", "result": 415, "unit": "nM"},
      {"measurement": "TGI", "setting": "SW-620 colon", "result": "> 100000", "unit": "nM"},
      {"measurement": "GI50", "setting": "MCF7 breast", "result": 373, "unit": "nM"},
      {"measurement": "TGI", "setting": "MCF7 breast", "result": "> 100000", "unit": "nM"},
      {"measurement": "GI50", "setting": "NCI-H226 lung", "result": 11100, "unit": "nM"},
      {"measurement": "TGI", "setting": "NCI-H226 lung", "result": "> 100000", "unit": "nM"},
      {"measurement": "GI50", "setting": "HL-60(TB) leukemia", "result": 500, "unit": "nM"},
      {"measurement": "TGI", "setting": "HL-60(TB) leukemia", "result": 26300, "unit": "nM"},
      {"measurement": "GI50", "setting": "SK-MEL-2 melanoma", "result": 4220, "unit": "nM"},
      {"measurement": "TGI", "setting": "SK-MEL-2 melanoma", "result": "> 100000", "unit": "nM"},
      {"measurement": "GI50", "setting": "NCI-H23 lung", "result": 2540, "unit": "nM"},
      {"measurement": "TGI", "setting": "NCI-H23 lung", "result": "> 100000", "unit": "nM"},
      {"measurement": "GI50", "setting": "786-0 renal", "result": 4730, "unit": "nM"},
      {"measurement": "TGI", "setting": "786-0 renal", "result": "> 100000", "unit": "nM"},
      {"measurement": "GI50", "setting": "SN12C renal", "result": 1680, "unit": "nM"},
      {"measurement": "TGI", "setting": "SN12C renal", "result": "> 100000", "unit": "nM"},
      {"measurement": "GI50", "setting": "HT29 colon", "result": 562, "unit": "nM"},
      {"measurement": "TGI", "setting": "HT29 colon", "result": "> 100000", "unit": "nM"},
      {"measurement": "GI50", "setting": "UACC-257 melanoma", "result": 47100, "unit": "nM"},
      {"measurement": "TGI", "setting": "UACC-257 melanoma", "result": "> 100000", "unit": "nM"},
      {"measurement": "GI50", "setting": "TK-10 renal", "result": 8040, "unit": "nM"},
      {"measurement": "TGI", "setting": "TK-10 renal", "result": "> 100000", "unit": "nM"},
      {"measurement": "GI50", "setting": "SK-OV-3 ovarian", "result": 763, "unit": "nM"},
      {"measurement": "TGI", "setting": "SK-OV-3 ovarian", "result": "> 100000", "unit": "nM"},
      {"measurement": "GI50", "setting": "HS 578T breast", "result": 331, "unit": "nM"},
      {"measurement": "TGI", "setting": "HS 578T breast", "result": 67500, "unit": "nM"},
      {"measurement": "GI50", "setting": "A498 renal", "result": 184, "unit": "nM"},
      {"measurement": "TGI", "setting": "A498 renal", "result": 645, "unit": "nM"},
      {"measurement": "GI50", "setting": "SF-539 CNS", "result": 598, "unit": "nM"},
      {"measurement": "TGI", "setting": "SF-539 CNS", "result": 4570, "unit": "nM"},
      {"measurement": "GI50", "setting": "SF-295 CNS", "result": 639, "unit": "nM"},
      {"measurement": "TGI", "setting": "SF-295 CNS", "result": "> 100000", "unit": "nM"},
      {"measurement": "GI50", "setting": "NCI/ADR-RES ovarian", "result": 816, "unit": "nM"},
      {"measurement": "TGI", "setting": "NCI/ADR-RES ovarian", "result": "> 100000", "unit": "nM"},
      {"measurement": "GI50", "setting": "HCT-15 colon", "result": 426, "unit": "nM"},
      {"measurement": "TGI", "setting": "HCT-15 colon", "result": "> 100000", "unit": "nM"},
      {"measurement": "GI50", "setting": "PC-3 prostate", "result": 2770, "unit": "nM"},
      {"measurement": "TGI", "setting": "PC-3 prostate", "result": "> 100000", "unit": "nM"},
      {"measurement": "GI50", "setting": "M14 melanoma", "result": 779, "unit": "nM"},
      {"measurement": "TGI", "setting": "M14 melanoma", "result": "> 100000", "unit": "nM"},
      {"measurement": "GI50", "setting": "K-562 leukemia", "result": 526, "unit": "nM"},
      {"measurement": "TGI", "setting": "K-562 leukemia", "result": "> 100000", "unit": "nM"},
      {"measurement": "GI50", "setting": "RXF 393 renal", "result": 485, "unit": "nM"},
      {"measurement": "TGI", "setting": "RXF 393 renal", "result": "> 100000", "unit": "nM"},
      {"measurement": "GI50", "setting": "COLO 205 colon", "result": 1420, "unit": "nM"},
      {"measurement": "TGI", "setting": "COLO 205 colon", "result": "> 100000", "unit": "nM"}
    ]}
  ]
}
